Measured values published in PMC4972871, “Optimization of Electrospray Ionization by Statistical Design of Experiments and Response Surface Methodology: Protein–Ligand Equilibrium Dissociation Constant Determinations” (Journal of the American Society for Mass Spectrometry, 2016).

Columns and labels:
[1] = target: T1, Plasmodium vivax guanylate kinase (PvGK) (Plasmodium vivax, UniProt A5K709); assay: native ESI-FT-ICR-MS titration (optimized source); confirmed by competition with GMP ([…]); format: binding
T1 construct: gene PVX_099895; Full-length guanylate kinase with an N-terminal 6-histidine tag (23545 Da)
T1 sequence (A5K709 entry or part of it): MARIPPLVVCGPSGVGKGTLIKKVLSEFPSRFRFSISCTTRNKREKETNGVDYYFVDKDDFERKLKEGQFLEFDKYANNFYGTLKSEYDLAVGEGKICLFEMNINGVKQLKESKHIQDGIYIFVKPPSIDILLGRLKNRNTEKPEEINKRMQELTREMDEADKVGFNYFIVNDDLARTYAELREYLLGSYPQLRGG

[2] = target: T1, Plasmodium vivax guanylate kinase (PvGK); assay: native ESI-FT-ICR-MS titration (optimized source conditions); format: binding

Compound	Kd [1]	Kd [2]
Nc1nc2c(ncn2[C@@H]2O[C@H](COP(=O)(O)OP(=O)(O)O)[C@@H](O)[C@H]2O)c(=O)[nH]1 [GDP]	0.3 ± 0.03 µM	
Nc1nc2c(ncn2[C@@H]2O[C@H](COP(=O)(O)O)[C@@H](O)[C@H]2O)c(=O)[nH]1 [GMP]		1.84 ± 0.11 µM
